The compounds below were run against MALT1 (Homo sapiens (Human), UniProt Q9UDY8) (assay: MALT1 enzymatic activity inhibition (fluorescence, Ac-LRSR-AMC substrate)). Details: recombinant MALT1 1.5 ng/μl, Ac-LRSR-AMC 1 μM.
Chain of MALT1 (Q9UDY8 whole entry): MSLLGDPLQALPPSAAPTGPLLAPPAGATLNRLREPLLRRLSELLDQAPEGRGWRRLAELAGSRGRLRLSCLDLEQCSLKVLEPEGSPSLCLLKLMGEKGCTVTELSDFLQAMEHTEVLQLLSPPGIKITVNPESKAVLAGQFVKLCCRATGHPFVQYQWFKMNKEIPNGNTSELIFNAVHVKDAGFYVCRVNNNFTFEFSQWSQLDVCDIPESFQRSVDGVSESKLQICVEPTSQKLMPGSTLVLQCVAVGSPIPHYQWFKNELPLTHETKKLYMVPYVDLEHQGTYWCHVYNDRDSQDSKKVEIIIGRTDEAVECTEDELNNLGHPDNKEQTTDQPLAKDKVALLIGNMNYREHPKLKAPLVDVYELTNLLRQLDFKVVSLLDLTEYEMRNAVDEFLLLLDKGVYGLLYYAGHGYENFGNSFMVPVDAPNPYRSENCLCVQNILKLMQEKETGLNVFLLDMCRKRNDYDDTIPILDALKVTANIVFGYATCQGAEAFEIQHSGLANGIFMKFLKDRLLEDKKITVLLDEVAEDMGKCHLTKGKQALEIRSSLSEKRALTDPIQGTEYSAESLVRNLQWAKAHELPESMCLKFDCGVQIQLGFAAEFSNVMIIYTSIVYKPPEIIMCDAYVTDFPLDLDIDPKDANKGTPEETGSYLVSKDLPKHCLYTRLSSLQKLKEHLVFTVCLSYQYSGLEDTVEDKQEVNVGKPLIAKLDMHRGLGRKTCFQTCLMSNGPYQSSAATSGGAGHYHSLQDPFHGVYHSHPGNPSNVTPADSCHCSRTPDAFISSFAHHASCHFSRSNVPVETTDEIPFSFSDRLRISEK
Format: biochemical
Procedure, shortened: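 Recombinant human MALT1 (1.5 ng/μl final) preincubated 10 min at rt with compounds in 50 mM HEPES pH 7.2-7.4, 100 mM NaCl, 900 mM sodium citrate, 10 mM DTT; 1 μM Ac-LRSR-AMC then added. AMC fluorescence read at start and after 30 min 37 °C plus 30 min rt; difference gives signal, % inhibition fitted to IC50.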
For `Cc1cc(NC(=O)Nc2cnc3ccnn3c2C2CCCC2)cnc1-c1noc(CCCCC(=O)Nc2ccc(C3CCC(=O)NC3=O)cc2)n1` (stereo not drawn) [Compound 101, 5-[3-[5-[(7-cyclopentylpyrazolo[1,5-a]pyrimidin-6-yl)carbamoylamino]-3-methyl-2-pyridyl]-1,2,4-oxadiazol-5-yl]-N-[4-(2,6-dioxo-3-piperidyl)phenyl]pentanamide], the EC50 was 0.2 to 0.5 µM.
`Cc1cc(NC(=O)Nc2cnc3ccnn3c2C2CCCC2)cnc1-c1noc(CCCCCC(=O)N2CCN(c3ccc4c(c3)CN(C3CCC(=O)N(COC(=O)C(C)(C)C)C3=O)C4=O)CC2)n1` (stereo not drawn) [Compound 102, [3-[5-[4-[6-[3-[5-[(7-cyclopentylpyrazolo[1,5-a]pyrimidin-6-yl)carbamoylamino]-3-methyl-2-pyridyl]-1,2,4-oxadiazol-5-yl]hexanoyl]piperazin-1-yl]-1-oxo-isoindolin-2-yl]-2,6-dioxo-1-piperidyl]methyl 2,2-dimethylpropanoate] showed an EC50 of at most 0.2 µM.
In the case of `CCCCOP(=O)(OCCCC)OCN1C(=O)CCC(N2Cc3cc(N4CCN(C(=O)CCCCCc5nc(-c6ncc(NC(=O)Nc7cnc8ccnn8c7C7CCCC7)cc6Cl)no5)CC4)ccc3C2=O)C1=O` (stereo not drawn) [Compound 103, dibutyl [3-[5-[4-[6-[3-[3-chloro-5-[(7-cyclopentylpyrazolo[1,5-a]pyrimidin-6-yl)carbamoylamino]-2-pyridyl]-1,2,4-oxadiazol-5-yl]hexanoyl]piperazin-1-yl]-1-oxo-isoindolin-2-yl]-2,6-dioxo-1-piperidyl]methyl phosphate], the EC50 is reported as over 5 µM.
Work on `O=C1CCC(N2Cc3cc(N4CCN(CCCCc5nc(-c6ncc(NC(=O)Nc7cnc8ccnn8c7C7CCCC7)cc6F)no5)CC4)ccc3C2=O)C(=O)N1` (stereo not drawn) [Compound 105, 1-(7-cyclopentylpyrazolo[1,5-a]pyrimidin-6-yl)-3-[6-[5-[4-[4-[2-(2,6-dioxo-3-piperidyl)-1-oxo-isoindolin-5-yl]piperazin-1-yl]butyl]-1,2,4-oxadiazol-3-yl]-5-fluoro-3-pyridyl]urea] yielded an EC50 of 0.2 to 0.5 µM.
`Cc1cc(NC(=O)Nc2cnc3ccnn3c2C2CCC2)cnc1-c1noc(CCCCCC(=O)N2CCN(c3ccc4c(c3)CN(C3CCC(=O)NC3=O)C4=O)CC2)n1` (stereo not drawn) [Compound 114, 1-(7-cyclobutylpyrazolo[1,5-a]pyrimidin-6-yl)-3-[6-[5-[6-[4-[2-(2,6-dioxo-3-piperidyl)-1-oxo-isoindolin-5-yl]piperazin-1-yl]-6-oxo-hexyl]-1,2,4-oxadiazol-3-yl]-5-methyl-3-pyridyl]urea] was tested, and the EC50 was at most 0.2 µM.
`Cc1cc(NC(=O)Nc2cnc3ccnn3c2C2CCC2)cnc1-c1noc(CCCCCCN2CCN(c3ccc4c(c3)CN(C3CCC(=O)NC3=O)C4=O)CC2)n1` (stereo not drawn) [Compound 115, 1-(7-cyclobutylpyrazolo[1,5-a]pyrimidin-6-yl)-3-[6-[5-[6-[4-[2-(2,6-dioxo-3-piperidyl)-1-oxo-isoindolin-5-yl]piperazin-1-yl]hexyl]-1,2,4-oxadiazol-3-yl]-5-methyl-3-pyridyl]urea] gave an EC50 of at most 0.2 µM.
`Cc1cc(NC(=O)Nc2cnc3ccnn3c2C2CCCCC2)cnc1-c1noc(CCCCC(=O)Nc2ccc3c(c2)CN(C2CCC(=O)NC2=O)C3=O)n1` (stereo not drawn) [Compound 125, 5-[3-[5-[(7-cyclohexylpyrazolo[1,5-a]pyrimidin-6-yl)carbamoylamino]-3-methyl-2-pyridyl]-1,2,4-oxadiazol-5-yl]-N-[2-(2,6-dioxo-3-piperidyl)-1-oxo-isoindolin-5-yl]pentanamide] was tested, and the EC50 was 0.5 to 1 µM.
`Cc1cc(NC(=O)Nc2cnc3ccnn3c2C2CCCCC2)cnc1-c1noc(CCCC(=O)N2CCN(c3ccc4c(c3)CN(C3CCC(=O)NC3=O)C4=O)CC2)n1` (stereo not drawn) [Compound 126, 1-(7-cyclohexylpyrazolo[1,5-a]pyrimidin-6-yl)-3-[6-[5-[4-[4-[2-(2,6-dioxo-3-piperidyl)-1-oxo-isoindolin-5-yl]piperazin-1-yl]-4-oxo-butyl]-1,2,4-oxadiazol-3-yl]-5-methyl-3-pyridyl]urea] gave an EC50 of 0.5 to 1 µM.
In the case of `Cc1cc(NC(=O)Nc2cnc3ccnn3c2C(C)(C)C)cnc1-c1noc(CCCCC(=O)N2CCN(c3ccc4c(c3)CN(C3CCC(=O)NC3=O)C4=O)CC2)n1` (stereo not drawn) [Compound 127, 1-(7-tert-butylpyrazolo[1,5-a]pyrimidin-6-yl)-3-[6-[5-[5-[4-[2-(2,6-dioxo-3-piperidyl)-1-oxo-isoindolin-5-yl]piperazin-1-yl]-5-oxo-pentyl]-1,2,4-oxadiazol-3-yl]-5-methyl-3-pyridyl]urea], the EC50 is reported as 1 to 5 µM.
Work on `O=C1CCC(N2Cc3cc(N4CCN(C(=O)CCCCCc5nnc(-c6ccc(NC(=O)Nc7cnc8ccnn8c7C7CCCC7)cn6)s5)CC4)ccc3C2=O)C(=O)N1` (stereo not drawn) [Compound 128, 1-(7-cyclopentylpyrazolo[1,5-a]pyrimidin-6-yl)-3-[6-[5-[6-[4-[2-(2,6-dioxo-3-piperidyl)-1-oxo-isoindolin-5-yl]piperazin-1-yl]-6-oxo-hexyl]-1,3,4-thiadiazol-2-yl]-3-pyridyl]urea] yielded an EC50 of 1 to 5 µM.
Compound `CC(C)c1c(NC(=O)Nc2ccc(-c3nnc(CCCCCC(=O)N4CCN(c5ccc6c(c5)CN(C5CCC(=O)NC5=O)C6=O)CC4)s3)nc2)cnc2ccnn12` (stereo not drawn) [Compound 129, 1-[6-[5-[6-[4-[2-(2,6-dioxo-3-piperidyl)-1-oxo-isoindolin-5-yl]piperazin-1-yl]-6-oxo-hexyl]-1,3,4-thiadiazol-2-yl]-3-pyridyl]-3-(7-isopropylpyrazolo[1,5-a]pyrimidin-6-yl)urea] has an EC50 of 1 to 5 µM.
In the case of `Cc1cc(NC(=O)Nc2cnc3ccnn3c2C(C)C)cnc1-c1noc(CCCCC(=O)N2CCN(c3ccc4c(c3)CN(C3CCC(=O)N(COC(=O)C(C)(C)C)C3=O)C4=O)CC2)n1` (stereo not drawn) [Compound 130, [3-[5-[4-[5-[3-[5-[(7-isopropylpyrazolo[1,5-a]pyrimidin-6-yl)carbamoylamino]-3-methyl-2-pyridyl]-1,2,4-oxadiazol-5-yl]pentanoyl]piperazin-1-yl]-1-oxo-isoindolin-2-yl]-2,6-dioxo-1-piperidyl]methyl 2,2-dimethylpropanoate], the EC50 is reported as at most 0.2 µM.
`Cc1cc(NC(=O)Nc2cnc3ccnn3c2C(C)C)cnc1-c1noc(CCCCCC(=O)N2CCN(c3ccc4c(c3)CN(C3CCC(=O)N(COC(=O)C(C)(C)C)C3=O)C4=O)CC2)n1` (stereo not drawn) [Compound 131, [3-[5-[4-[6-[3-[5-[(7-isopropylpyrazolo[1,5-a]pyrimidin-6-yl)carbamoylamino]-3-methyl-2-pyridyl]-1,2,4-oxadiazol-5-yl]hexanoyl]piperazin-1-yl]-1-oxo-isoindolin-2-yl]-2,6-dioxo-1-piperidyl]methyl 2,2-dimethylpropanoate] showed an EC50 of at most 0.2 µM.
With `Cc1cc(NC(=O)Nc2cnc3ccnn3c2C2CCCCC2)cnc1-c1noc(CCCCCN2CCN(c3ccc4c(c3)CN(C3CCC(=O)NC3=O)C4=O)CC2)n1` (stereo not drawn) [Compound 132, 1-(7-cyclohexylpyrazolo[1,5-a]pyrimidin-6-yl)-3-[6-[5-[5-[4-[2-(2,6-dioxo-3-piperidyl)-1-oxo-isoindolin-5-yl]piperazin-1-yl]pentyl]-1,2,4-oxadiazol-3-yl]-5-methyl-3-pyridyl]urea] the EC50 was 0.2 to 0.5 µM.
For `O=C1CCC(N2Cc3cc(N4CCN(CCCCCCc5nc(-c6ncc(NC(=O)Nc7cnc8ccnn8c7C7CCCC7)cc6C(F)(F)F)no5)CC4)ccc3C2=O)C(=O)N1` (stereo not drawn) [Compound 133, 1-(7-cyclopentylpyrazolo[1,5-a]pyrimidin-6-yl)-3-[6-[5-[6-[4-[2-(2,6-dioxo-3-piperidyl)-1-oxo-isoindolin-5-yl]piperazin-1-yl]hexyl]-1,2,4-oxadiazol-3-yl]-5-(trifluoromethyl)-3-pyridyl]urea], the EC50 was at most 0.2 µM.
